Experimental data: article PMC4501720 (PLoS ONE, 2015)

Tests used:
[1] = system: whole blood cells of group 3 pigs vaccinated with BCG-pAg85A; type: cell-based, pigs (Sus scrofa domestica)
[2] = system: whole blood cells of group 3 pigs vaccinated with BCG-pAg85A; type: cell-based, pigs (Sus scrofa domestica); remark: listed apart in the source

## 131–150: synthetic overlapping peptide of mature Ag85A, aa 131–150 (SALTLAIYHPQQFVYAGAMS; UniProt P9WQP3 174-193, looked up, fragment)
[1]
  IFN-γ levels, BCG / pAg85A animal number 1: 11,114 pg/mL
  IFN-γ levels, BCG / pAg85A animal number 2: 1,754 pg/mL
  IFN-γ levels, BCG / pAg85A animal number 3: 5,306 pg/mL
  IFN-γ levels, BCG / pAg85A animal number 4: 868 pg/mL
  IFN-γ levels, BCG / pAg85A animal number 5: 11,072 pg/mL
  IFN-γ levels, BCG / pAg85A animal number 6: 4,687 pg/mL
  group 3 animals recognizing the peptide (significant IFN-γ levels): 6/6 and all six
[2]
  animals with positive proliferative response to peptide: 5/6

## 275–294: synthetic overlapping peptide of mature Ag85A, aa 275–294 (KPDLQRALGATPNTGPAPQG; UniProt P9WQP3 318-337, looked up, fragment)
[1]
  IFN-γ levels, BCG / pAg85A animal number 1: 57 pg/mL
  IFN-γ levels, BCG / pAg85A animal number 2: <5 pg/mL
  IFN-γ levels, BCG / pAg85A animal number 3: <5 pg/mL
  IFN-γ levels, BCG / pAg85A animal number 4: <5 pg/mL
  IFN-γ levels, BCG / pAg85A animal number 5: 114 pg/mL
  IFN-γ levels, BCG / pAg85A animal number 6: 77 pg/mL

## Ag85A tub: recombinant E. coli derived histidine-tagged Ag85A of M. tuberculosis
[1]
  IFN-γ levels, BCG / pAg85A animal number 1: 145,331 pg/mL
  IFN-γ levels, BCG / pAg85A animal number 2: 50,084 pg/mL
  IFN-γ levels, BCG / pAg85A animal number 3: 68,850 pg/mL
  IFN-γ levels, BCG / pAg85A animal number 4: 3,712 pg/mL
  IFN-γ levels, BCG / pAg85A animal number 5: 27,544 pg/mL
  IFN-γ levels, BCG / pAg85A animal number 6: 14,506 pg/mL
